According to patent publication US20230192764A1, “NOVEL DOPAMINE PRECURSORS” (Yissum Research Development Company of the Hebrew …, priority 2018, published 2023):
Several values for one entry are separate records, joined by “and”; a condition that tells them apart may be missing. Identical values can stand only once.

Assays:
[1] = test system: human neuroblastoma cells (SH-SY5Y); assay: Viability of SH-SY5Y cells after auranofin (AuF) challenge, methylene blue staining; format: cell-based; details: SH-SY5Y pre-treated with 5 µM AuF 30 min, washed, compound added, viability 24 h later
Procedure: Viability of cells pre-treated with 5 µM AuF for 30 min, washed and later exposed to increasing concentrations of SD-444, was determined 24 h later.
A) The anti-apoptotic activity of SD-444 was tested on human neuronal cells SH-SY5Y. The cells were challenged by auranofin (AuF) that induces cellular stress by selectively blocking the thioredoxin reductase activity.
SH-SY5Y cells were plated on 96-well plates and treated with AuF in different concentrations for 30 min. Then the cells were washed with PBS and treated as indicated. Twenty-four hours later, the cells were fixed with glutaraldehyde in final concentration of 0.5% for 10 min. Cells were washed 3 times with DDW dried overnight, and washed once with borate buffer (0.1 M, pH 8.5). The fixed cells were stained with 200 µl of 1% methylene blue dissolved in borate buffer for 1 h. After extensive washing and drying, the color was extracted with 200 µl of 0.1 M HCl for 1 h at 37° C. and absorbance was read in spectrophotometer at 630 nm.

[2] = Body weight monitoring in rotenone-treated rats; format: in vivo, Sprague Dawley rats; details: for Weight: individual rat, listed as SD
Procedure: (§1) 1-SD (Rotenone + SD); 2 - SDA (Rotenone + SDA); 3 - Control (Rotenone); 4 -Naive. The experimental groups were comprised of 6 animals for treated groups (1-3) and 2 animals in naive group (4). Rotenone was administrated 3.0 mg/kg intraperitoneally (IP) once a day in the morning (days 1-9). SD 33 mg/kg and SDA 33 mg/kg were administrated intraperitoneally once a day in the afternoon (days 1-9).
Animals weight was measured before initiation of treatment (day 0), on days 4,7, 9 during the experiment and on termination day 11. On day 11, animals were sacrificed and brains were harvested for further histopathological analysis.
(§2) IP administration: Rotenone was administrated to groups 1-3. Rotenone was injected intraperitoneally at a dose 3.0 mg/kg once a day in the morning (days 1-9). SD and SDA was administrated both at a dose of 33 mg/kg and were injected intraperitoneally once a day in the afternoon (days 1-9). Group number 4 was untreated, and remained as a naive group.

[3] = test system: Rotenone -induced model of Parkinson's disease (PD) in rats; assay: Rotarod behavior assay, rotenone model; format: in vivo, Sprague Dawley rats; details: for R.R (rotarod): individual rat, listed as SD
Procedure: as §1
(§3) Rearing behavior, rotarod and beam walk tests were performed before initiation of treatment (day 0) as well as on days 4, 8 and 10 of the experiment.
as §2
The test was used to evaluate motor coordination and balance. Apparatus was set to accelerate from 4 to 40 rpm in 300 s, and animals from same cage are placed in separate lanes on rod initially rotating at 4 rpm.

[4] = test system: Rotenone -induced model of Parkinson's disease (PD) in rats; assay: Rat rearing behavior (cylinder) test, rotenone model; format: in vivo, Sprague Dawley rats; details: for Cylinder rise and touch (number of rears in 2 min): individual rat, listed as SD
Procedure: as §1, §3, §2
Animals were placed in a clear glass cylinder (40 cm high and 20 cm diameter) and number of rears in 2 min was observed. Rear was considered as animals raised their hands above the shoulder and made contact with the wall of cylinder with their forelimb.

[5] = test system: JNK phosphorylation; assay: AuF-induced phosphorylation of JNK in SH-SY5Y cells, western blot; format: cell-based, human
Procedure: SH-SY5Y cells were treated with 10 µM AuF with or without SD-444. Phosphorylation was determined by western blot analysis. The amount of each band was quantitated by densitometry and plotted with a linear regression program normalized to total JNK.
(§4) In the assay, twenty to thirty micrograms of protein samples were loaded on 10-12% SDS-PAGE gels. The proteins were then transferred electrophoretically to nitrocellulose (Whatman, Germany). The blots were blocked by incubation for 1 h at RT in TBS-T (25 mM Tris-HCl pH 7.4, 0.9% NaCl and 0.02% Tween-20) with 4% Difco skim milk (BD, USA), and incubated over-night at 4° C. with the primary antibody: p-p38^MAPK (Thr180/Tyr182), rabbit mAb; p38, rabbit Ab.
as §4, with “1h” for “1 h”, “p-JNK^MAPK, and β-catenin.” for “p-p38^MAPK (Thr180/Tyr182), rabbit mAb; p38, rabbit Ab.”

[6] = test system: Rotenone -induced model of Parkinson's disease (PD) in rats; assay: Rat beam walk test, rotenone model; format: in vivo, Sprague Dawley rats; details: for beam end time: individual rat, listed as SD
Procedure: as §1, §3, §2
Animals were gently placed on 1 m long narrow aluminum beam facing one of the ends and allowed to walk to the end of the beam.

[7] = test system: p38MAPK phosphorylation; assay: AuF-induced phosphorylation of p38MAPK in SH-SY5Y cells, western blot; format: cell-based, human
Procedure: Cells were treated with 10 µM AuF with or without SD-444. Phosphorylation was determined by western blot analysis. The amount of each band was quantitated by densitometry and plotted with a linear regression program normalized with β catenin (b-cat).
as §4

[8] = average n=6, day 0 (before treatment)
[9] = day 0 (before treatment), rotenone 3 mg/kg + compound 33 mg/kg IP
[10] = rats, rotenone 3.0 mg/kg IP + compound 33 mg/kg IP, days 1-9

CC(=O)NC(CS)C(=O)NC(Cc1cccc(O)c1O)C(=O)NC(CS)C(N)=O (stereo not shown) [SD-444, Acetyle-Cys-2,3 dihydroxyphenylalanin-Cys- amide]
neuronal cell-viability after AuF [1]: partially restored | neuronal cell-viability after AuF ([1]; listed as SD): increase viability | Weight, group average [2, 8]: 304.83 gr | Weight, group average ([2]; average n=6, day 4): 299.83 gr | Weight, group average ([2]; average n=6, day 7): 294.17 gr | Weight, group average ([2]; average n=6, day 9): 290.17 gr | Weight, group average ([2]; average n=6, day 11): 283.17 gr | Weight [2, 9]: 300 gr (2×) and 307 gr and 294 gr and 315 gr and 313 gr | Weight ([2]; day 4, rotenone 3 mg/kg + compound 33 mg/kg IP): 299 gr (2×) and 296 gr and 290 gr and 310 gr and 305 gr | Weight ([2]; day 7, rotenone 3 mg/kg + compound 33 mg/kg IP): 298 gr and 281 gr and 286 gr and 305 gr and 294 gr and 301 gr | Weight ([2]; day 9, rotenone 3 mg/kg + compound 33 mg/kg IP): 295 gr and 285 gr and 280 gr and 298 gr and 286 gr and 297 gr | Weight ([2]; day 11, rotenone 3 mg/kg + compound 33 mg/kg IP): 290 gr (2×) and 278 gr and 284 gr and 283 gr and 274 gr | R.R (rotarod), group average [3, 8]: 283.33 s | R.R (rotarod), group average ([3]; average n=6, day 4): 275.00 s | R.R (rotarod), group average ([3]; average n=6, day 8): 256.67 s | R.R (rotarod), group average ([3]; average n=6, day 10): 240.50 s | R.R (rotarod) [3, 9]: 274 s and 280 s and 288 s and 300 s and 291 s and 267 s | R.R (rotarod) ([3]; day 4): 280 sec and 268 sec and 300 sec (2×) and 247 sec and 255 sec | R.R (rotarod) ([3]; day 8): 249 s and 251 s and 282 s and 267 s and 254 s and 237 s | R.R (rotarod) ([3]; day 10): 248 s and 255 s and 258 s and 266 s and 224 s and 192 s | rotarod test, motor dysregulation mediated by rotenone [3, 10]: significantly reversed | Cylinder rise and touch, group average [4, 8]: 12.33 | Cylinder rise and touch, group average ([4]; average n=6, day 4): 14.00 | Cylinder rise and touch, group average ([4]; average n=6, day 8): 12.33 | Cylinder rise and touch, group average ([4]; average n=6, day 10): 13.00 | Cylinder rise and touch (number of rears in 2 min) [4, 9]: 13 (3×) and 8 and 18 and 9 | Cylinder rise and touch (number of rears in 2 min) ([4]; day 4): 22 and 9 and 12 and 13 (2×) and 15 | Cylinder rise and touch (number of rears in 2 min) ([4]; day 8): 9 and 10 (2×) and 18 and 15 and 12 | Cylinder rise and touch (number of rears in 2 min) ([4]; day 10): 16 and 13 and 17 and 9 and 15 and 8 | Cylinder test, maintaining locomotor activity in Rotenone-treated rats [4, 10]: very effective | concentration at which significant reduction in JNK activation is seen ([5]; 10 µM AuF, western blot): 10 µM | JNK phosphorylation (AuF-triggered) ([5]; summary statement): inhibit | beam end time, group average [6, 8]: 11.33 s | beam end time, group average ([6]; average n=6, day 4): 20.17 s | beam end time, group average ([6]; average n=6, day 8): 22.00 s | beam end time, group average ([6]; average n=6, day 10): 22.67 s | beam end time [6, 9]: 10 sec (2×) and 19 sec and 5 sec and 8 sec and 16 sec | beam end time ([6]; day 4): 31 s and 13 s and 15 s and 6 s and 38 s and 18 s | beam end time ([6]; day 8): 23 s and 22 s and 18 s and 16 s and 21 s and 32 s | beam end time ([6]; day 10): 43 s and 23 s and 17 s and 12 s and 27 s and 14 s | Walk-beam test, reversal of rotenone induced imbalance [6, 10]: very effective | concentration at which significant reduction in p38 activation is seen ([7]; 10 µM AuF, western blot): 30 µM | p38 phosphorylation (AuF-triggered) ([7]; summary statement): inhibit
